Values quoted from earlier work, collected in patent publication US20110060000A1, “ACRIDINE ANALOGS IN THE TREATMENT OF GLIOMAS” (priority 2009, published 2011).

Tested on: gliomas
Conditions: in association with established anti-glioma medications; cited from earlier work

In the case of `CCN(CC)CCCC(C)Nc1ccnc2cc(Cl)ccc12` (stereo not shown) [Chloroquine], the patient survival is listed as “patient survival was significantly prolonged”.
